US20080025917A1, “Methods for modulating formation and progression of cellulite” (priority 2006, published 2008)

Columns and labels:
TIF1β = target: T1, TIF1β (Mus musculus, UniProt Q62318); experiment: HF-affinity resin binding / free-compound competition for TIF1β
T1 construct: endogenous in cells; host or cells: SV-MES cells (lysate)
From the text: The molecular mechanisms underlying the regulation of ECM by HF currently are not known. […] These proteins, TIF1β and Ruvbl2, are both transcriptional regulatory proteins. TIF1β is known to interact with transcription factors that regulate Type I collagen expression, providing the first molecular connection between HF and the regulation of an ECM gene. A brief description and data detailing the isolation and identification of HF binding proteins are provided below. […] This band was identified by tandem mass spectrometry as TIF1β. These HF binding proteins were isolated and identified by tandem mass spectrometry. Using this approach, the transcriptional co-repressor TIF1β (FIG. 4) was initially identified as an HF binding protein. A cDNA encoding TIF1β was also identified and used to confirm that TIF1β binds specifically to HF (FIG. 5). Cloned, tagged TIF1β was transfected into SV-MES cells and precipitated with HF-resin.

[1] = system: human primary dermal fibroblasts; experiment: Fibroblast-driven collagen disc contraction; format: cell-based; settings: 100 nM, 72 hours
Protocol: Human primary dermal fibroblasts were seeded in a matrix of Type I collagen in the presence or absence of 5 ng/ml TGFβ or 100 nM HF. Collagen discs were released from attachment to the culture dish and allowed to undergo fibroblast-driven contraction for 72 hours. The area of the discs at time zero was 200 units.

[2] = system: NMuMg murine epithelial cells; experiment: TGFβ-induced myofibroblast formation, Western blot for smooth muscle actin; format: cell-based; settings: 5 ng/ml TGFβ1, 72 hours, increasing doses
Protocol: NMuMg murine epithelial cells were induced to undergo transition to myofibroblasts by stimulation with 5 ng/ml TGFβ1. After 72 hours, myofibroblast differentiation was assessed by Western blot for Smooth muscle actin (SMA), a myofibroblast contractile protein. […] Thus, HF inhibited myofibroblasts formation in response to TGFβ.

[3] = system: human primary dermal fibroblasts; experiment: Attachment and spreading of primary dermal fibroblasts on a Type I collagen matrix; format: cell-based
Protocol: Assay of HF effects on contractile behavior of dermal fibroblasts. Previous studies have established that HF can modulate fibrosis in vivo, and regulate ECM production by cells in vitro. The studies described herein provide a simple assay to test the effects of HF and its putative mediators on the behavior of cells likely to provide the basis for the structural features of cellulite—dermal fibroblasts and myofibroblasts. When human primary dermal fibroblasts are cultured in a matrix of Type I collagen, mimicking the interstitial matrix of the dermis and hypodermis, they attach to the substratum and spread, exerting contractile force on the surrounding interstitial matrix (FIG. 2A).

[4] = in vitro; cited from earlier work
RuvBl2 = target: T2, RuvBl2 (Mus musculus, UniProt Q9WTM5); experiment: HF affinity purification / tandem mass spectrometry, RuvBl2; format: binding
T2 construct: endogenous in cells; host or cells: SV-MES cell lysate (inferred from the same approach described)
T2 sequence (Q9WTM5 2-463 limits assumed): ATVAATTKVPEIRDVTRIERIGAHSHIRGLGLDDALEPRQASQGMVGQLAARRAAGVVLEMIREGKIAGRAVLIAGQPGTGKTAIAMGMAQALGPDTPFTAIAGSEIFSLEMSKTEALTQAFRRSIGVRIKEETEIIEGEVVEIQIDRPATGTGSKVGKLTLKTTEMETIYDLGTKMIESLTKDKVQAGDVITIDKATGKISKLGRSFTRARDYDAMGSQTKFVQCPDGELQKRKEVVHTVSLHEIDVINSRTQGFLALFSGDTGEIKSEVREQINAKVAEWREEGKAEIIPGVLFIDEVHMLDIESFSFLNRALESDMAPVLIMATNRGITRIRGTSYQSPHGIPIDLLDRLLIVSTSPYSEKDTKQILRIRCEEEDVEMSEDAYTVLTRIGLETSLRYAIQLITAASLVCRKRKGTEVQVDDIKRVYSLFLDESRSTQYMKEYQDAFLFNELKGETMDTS
From the text: TIF1β is a member of a family of transcriptional co-repressors (Chang, et al., Mol Cell Biol, vol. 18: 5880-87 (1998); Hsu, et al. Embo J., vol. 20: 2273-85 (2001); Le Douarin, et al. J Steroid Biochem Mol Biol 65, 43-50 (1998)). TIF1β interacts with a variety of transcription factors, including nuclear receptors, to mediate regulation of chromatin modification (Chang, et al., Mol Cell Biol, vol. 18: 5880-87 (1998); Hsu, et al. Embo J., vol. 20: 2273-85 (2001); Nomura, et al. J Biol Chem 279, 16715-26 (2004)). TIF1β interacts with a number of transcription factors known to regulate the synthesis of Type I collagen, providing a direct link between HF, TIF1β and the transcription of extracellular matrix genes. […] Ruvbl2, also known as Reptin, ECP51, Tip48, and Tip49b, is, like TIF1β, known to function in transcriptional regulation and chromatin re-modeling (Kanemaki, et al. J Biol Chem 274, 22437-44 (1999)). The identification of halofuginone's intracellular effectors, and the binding sites for halofuginone in those effectors, provides additional approaches to targeting the deposition of sub-dermal ECM. New classes of small molecules can be designed to target intracellular effectors such as TIF1β and RuvBl2, broadening the range of potential therapeutic agents for the treatment of cellulite.

[5] = cited from earlier work
[6] = system: Primary human dermal fibroblasts; format: cell-based; settings: 100 nM, 5 ng/ml TGFβ1
Protocol: Primary human dermal fibroblasts were seeded in a matrix of Type I collagen with 5 ng/ml TGFβ1 in the presence or absence of 100 nM HF. FIG. 7 depicts the effect of the presence and absence of HF on the behavior of TGFβ-treated dermal fibroblasts.

T1 sequence (Q62318 whole entry): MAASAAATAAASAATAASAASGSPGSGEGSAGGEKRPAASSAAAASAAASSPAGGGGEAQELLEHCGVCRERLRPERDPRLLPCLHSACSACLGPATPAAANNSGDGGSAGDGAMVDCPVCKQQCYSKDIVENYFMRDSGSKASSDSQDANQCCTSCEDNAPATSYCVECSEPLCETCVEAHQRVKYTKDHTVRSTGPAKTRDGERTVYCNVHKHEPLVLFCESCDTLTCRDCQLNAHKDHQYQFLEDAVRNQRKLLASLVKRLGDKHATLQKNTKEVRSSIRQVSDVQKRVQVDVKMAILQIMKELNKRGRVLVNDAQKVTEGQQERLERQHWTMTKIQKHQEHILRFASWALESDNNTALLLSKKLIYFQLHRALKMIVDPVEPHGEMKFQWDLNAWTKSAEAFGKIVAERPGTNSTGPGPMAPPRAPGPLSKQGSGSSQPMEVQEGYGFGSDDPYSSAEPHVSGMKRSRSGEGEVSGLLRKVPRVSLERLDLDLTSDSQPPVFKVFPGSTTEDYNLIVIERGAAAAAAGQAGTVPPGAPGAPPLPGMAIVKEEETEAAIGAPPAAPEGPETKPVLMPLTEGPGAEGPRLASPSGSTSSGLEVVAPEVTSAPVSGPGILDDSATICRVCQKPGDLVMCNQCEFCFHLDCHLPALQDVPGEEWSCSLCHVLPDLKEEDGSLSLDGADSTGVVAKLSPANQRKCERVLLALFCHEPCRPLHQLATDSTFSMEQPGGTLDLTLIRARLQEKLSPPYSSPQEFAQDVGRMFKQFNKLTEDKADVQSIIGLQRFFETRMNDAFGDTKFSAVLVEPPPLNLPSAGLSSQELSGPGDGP

Compound | competition by free compound for binding of TIF1β band to HF affinity resin (TIF1β; SV-MES cell lysates, excess free compound) | blocking of tagged TIF1β interaction with immobilized HF by pre-incubation (TIF1β; cloned, tagged TIF1β transfected into SV-MES cells, precipitated with HF-resin) | contractile activity of myofibroblasts in a collagen matrix (disc area) [1] | smooth muscle actin (SMA) induction [2] | ability of fibroblasts to attach and spread on collagen matrix ([3]; 200 nM, 24 hrs) | ability of fibroblasts to attach and spread on collagen matrix ([3]; as little as 30 nM) | concentration at which it acts as an inhibitor of fibrosis [4] [nM] | binding of RuvBl2 to HF (RuvBl2) | excess dermal ECM deposition ([5]; animal models of wound healing and fibrotic disease, intra-peritoneally, in food or applied locally) | toxicity in vivo ([5]; in vivo) | fibroblast extensions and attachments to the matrix [6]
O=C(CC1NCCCC1O)Cn1cnc2cc(Br)c(Cl)cc2c1=O (stereo not drawn) [HF, 7-bromo-6-chloro-3-[3-(3-hydroxy-2-piperidinyl)-2-oxopropyl]-4(3H)-quinazolinone] | specifically competed | blocked TIF1β interaction with immobilized HF | inhibited the contractile activity | eliminated SMA induction | completely fail to attach and spread | Identical results | 20 to 200 | second HF binding protein | reduces excess dermal ECM deposition | low-toxicity | no extensions or attachments to the matrix or to one another
CC(C)(C)OC(=O)N1CCC[C@H](O)[C@H]1CC(=O)Cn1cnc2cc(Br)c(Cl)cc2c1=O [MAZ1310] |  |  |  |  | inactive |  |  |  |  |  | 
